Patent publication US10730874B2 (Shire Human Genetic Therapies, Inc., priority 2018, dated 2020)
pEC50: −log10 of the molar value.

Target: human activated kallikrein enzyme (plasma kallikrein) (Homo sapiens (Human), UniProt P03952)
Test: Inhibition of human activated plasma kallikrein, fluorogenic peptide substrate assay, 500 pM enzyme format
Type: biochemical
Conditions: 500 pM activated kallikrein enzyme, 300 uM Pro-Phe-Arg-7-amido-4-methylcoumarin substrate, 30 min preincubation, 10 min at RT; read-out: Primary Dose Response Assay: Average EC50
In short: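 Buffer 20 mM Tris pH 7.5, EDTA, NaCl, PEG-400, Triton X-100; 300 uM Pro-Phe-Arg-AMC; enzyme–inhibitor preincubation 30 min RT. Format one: 500 pM kallikrein, 10 min RT reaction; format two: 5 pM kallikrein, 18 h RT reaction. Fluorescence read at 460 nm (380 nm excitation).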

Sequence of human activated kallikrein enzyme (plasma kallikrein) (P03952 391-638): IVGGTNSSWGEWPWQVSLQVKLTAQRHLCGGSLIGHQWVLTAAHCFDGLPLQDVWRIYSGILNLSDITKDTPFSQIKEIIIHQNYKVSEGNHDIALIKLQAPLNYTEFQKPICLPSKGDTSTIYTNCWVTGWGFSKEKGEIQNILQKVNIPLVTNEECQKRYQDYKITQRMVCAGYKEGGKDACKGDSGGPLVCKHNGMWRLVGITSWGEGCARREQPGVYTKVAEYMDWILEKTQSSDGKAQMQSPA
Sequence of human activated kallikrein enzyme (plasma kallikrein) (P03952 20-390 partner): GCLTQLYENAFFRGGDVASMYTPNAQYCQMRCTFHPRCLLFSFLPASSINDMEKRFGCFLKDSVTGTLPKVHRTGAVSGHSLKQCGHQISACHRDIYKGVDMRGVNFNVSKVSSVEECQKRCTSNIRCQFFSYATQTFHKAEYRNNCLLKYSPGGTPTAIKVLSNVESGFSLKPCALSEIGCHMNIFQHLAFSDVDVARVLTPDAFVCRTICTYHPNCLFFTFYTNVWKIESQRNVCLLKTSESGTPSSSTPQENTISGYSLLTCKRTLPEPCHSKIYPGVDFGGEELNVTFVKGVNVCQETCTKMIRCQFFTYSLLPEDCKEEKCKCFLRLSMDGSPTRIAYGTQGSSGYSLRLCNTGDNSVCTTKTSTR

Row | Compound | pEC50
1 | Cc1nncn1-c1cc(C2CC2)cn2cc(Cn3cc(C(=O)NCc4ncn5ccc(Cl)c(F)c45)nn3)nc12 [Example I-249, N-((7-chloro-8-fluoroimidazo[1,5-a]pyridin-1-yl)methyl)-1-((6-cyclopropyl-8-(3-methyl-4H-1,2,4-triazol-4-yl)imidazo[1,2-a]pyridin-2-yl)methyl)-1H-1,2,3-triazole-4-carboxamide] | > 9.00
2 | O=C(NCc1ncn2ccc(Cl)c(F)c12)c1cn(Cc2nc3ccc(C4CC4)cc3s2)nn1 [Example I-252, N-((7-chloro-8-fluoroimidazo[1,5-a]pyridin-1-yl)methyl)-1-((6-cyclopropylbenzo[d]thiazol-2-yl)methyl)-1H-1,2,3-triazole-4-carboxamide] | 7.00 to 8.00
3 | Cc1nnc(C)n1-c1cc(C2CC2)cn2cc(Cn3cc(C(=O)NCc4ncn5ccc(Cl)c(F)c45)nn3)nc12 [Example I-253, N-((7-chloro-8-fluoroimidazo[1,5-a]pyridin-1-yl)methyl)-1-((6-cyclopropyl-8-(3,5-dimethyl-4H-1,2,4-triazol-4-yl)imidazo[1,2-a]pyridin-2-yl)methyl)-1H-1,2,3-triazole-4-carboxamide] | > 9.00
4 | COC(=O)c1ccc(-n2c(Cn3cc(C(=O)NCc4ncn5ccc(Cl)c(F)c45)nn3)cc3cc(C4CC4)ccc32)cc1 [Example I-254, methyl 4-(2-((4-(((7-chloro-8-fluoroimidazo[1,5-a]pyridin-1-yl)methyl)carbamoyl)-1H-1,2,3-triazol-1-yl)methyl)-5-cyclopropyl-1H-indol-1-yl)benzoate] | 8.00 to 9.00
5 | O=C(NCc1ncn2ccc(Cl)c(F)c12)c1cn(Cc2nc3cc(C4CC4)cc(Cl)n3n2)nn1 [Example I-255, 1-((5-chloro-7-cyclopropyl-[1,2,4]triazolo[1,5-a]pyridin-2-yl)methyl)-N-((7-chloro-8-fluoroimidazo[1,5-a]pyridin-1-yl)methyl)-1H-1,2,3-triazole-4-carboxamide] | > 9.00
6 | O=C(NCc1ncn2ccc(Cl)c(F)c12)c1cn(Cc2cc3ccc(C4CC4)cn3c2)nn1 [Example I-256, N-((7-chloro-8-fluoroimidazo[1,5-a]pyridin-1-yl)methyl)-1-((6-cyclopropylindolizin-2-yl)methyl)-1H-1,2,3-triazole-4-carboxamide] | 8.00 to 9.00
7 | Cc1ncc(-c2cc(C3CC3)cn3cc(Cn4cc(C(=O)NCc5ncn6ccc(Cl)c(F)c56)nn4)nc23)s1 [Example I-257, N-((7-chloro-8-fluoroimidazo[1,5-a]pyridin-1-yl)methyl)-1-((6-cyclopropyl-8-(2-methylthiazol-5-yl)imidazo[1,2-a]pyridin-2-yl)methyl)-1H-1,2,3-triazole-4-carboxamide] | > 9.00
8 | O=C(O)c1ccc(-n2c(Cn3cc(C(=O)NCc4ncn5ccc(Cl)c(F)c45)nn3)cc3cc(C4CC4)ccc32)cc1 [Example I-259, 4-(2-((4-(((7-chloro-8-fluoroimidazo[1,5-a]pyridin-1-yl)methyl)carbamoyl)-1H-1,2,3-triazol-1-yl)methyl)-5-cyclopropyl-1H-indol-1-yl)benzoic acid] | 8.00 to 9.00
9 | CCOC(=O)c1nc(C(=O)NCc2ncn3ccc(Cl)c(F)c23)cn1Cc1cn2cc(C3CC3)ccc2n1 [Example I-260] | > 9.00
10 | O=C(NCc1ncn2ccc(Cl)c(F)c12)c1cn(Cc2cn3cc(C4CC4)cc(-c4cncs4)c3n2)nn1 [Example I-263, N-((7-chloro-8-fluoroimidazo[1,5-a]pyridin-1-yl)methyl)-1-((6-cyclopropyl-8-(thiazol-5-yl)imidazo[1,2-a]pyridin-2-yl)methyl)-1H-1,2,3-triazole-4-carboxamide] | > 9.00
11 | COC(=O)C1CN(c2cc(C3CC3)nn3cc(Cn4cc(C(=O)NCc5ncn6ccc(Cl)c(F)c56)nn4)nc23)C1 [Example I-265a, methyl 1-(2-((4-(((7-chloro-8-fluoroimidazo[1,5-a]pyridin-1-yl)methyl)carbamoyl)-1H-1,2,3-triazol-1-yl)methyl)-6-cyclopropylimidazo[1,2-b]pyridazin-8-yl)azetidine-3-carboxylate] | > 9.00
12 | COC(=O)C1CCN(c2cc(C3CC3)nn3cc(Cn4cc(C(=O)NCc5ncn6ccc(Cl)c(F)c56)nn4)nc23)C1 (stereo not shown) [Example I-266, methyl 1-(2-((4-(((7-chloro-8-fluoroimidazo[1,5-a]pyridin-1-yl)methyl)carbamoyl)-1H-1,2,3-triazol-1-yl)methyl)-6-cyclopropylimidazo[1,2-b]pyridazin-8-yl)pyrrolidine-3-carboxylate] | > 9.00
13 | O=C(NCc1ncn2ccc(Cl)c(F)c12)c1cn(Cc2cn3nc(C4CC4)cc(N4CCC(C(=O)O)C4)c3n2)nn1 (stereo not shown) [Example I-267, 1-(2-((4-(((7-chloro-8-fluoroimidazo[1,5-a]pyridin-1-yl)methyl)carbamoyl)-1H-1,2,3-triazol-1-yl)methyl)-6-cyclopropylimidazo[1,2-b]pyridazin-8-yl)pyrrolidine-3-carboxylic acid] | > 9.00
14 | Cc1c(C)n(C)c2ccc(Cn3cc(C(=O)NCc4ncn5ccc(Cl)c(F)c45)nn3)cc12 [Example I-269, N-((7-chloro-8-fluoroimidazo[1,5-a]pyridin-1-yl)methyl)-1-((1,2,3-trimethyl-1H-indol-5-yl)methyl)-1H-1,2,3-triazole-4-carboxamide] | 8.00 to 9.00
15 | O=C(NCc1ncn2ccc(Cl)c(F)c12)c1cc(C(=O)O)n(Cc2cn3cc(C4CC4)ccc3n2)c1 [Example I-270b, 4-(((7-chloro-8-fluoroimidazo[1,5-a]pyridin-1-yl)methyl)carbamoyl)-1-((6-cyclopropylimidazo[1,2-a]pyridin-2-yl)methyl)-1H-pyrrole-2-carboxylic acid] | > 9.00

Continued, values first:

Row | pEC50 | Compound
16 | > 9.00 | CCOC(=O)c1nncn1-c1cc(C2CC2)cn2cc(Cn3cc(C(=O)NCc4ncn5ccc(Cl)c(F)c45)nn3)nc12 [Example I-248, ethyl 4-(2-((4-(((7-chloro-8-fluoroimidazo[1,5-a]pyridin-1-yl)methyl)carbamoyl)-1H-1,2,3-triazol-1-yl)methyl)-6-cyclopropylimidazo[1,2-a]pyridin-8-yl)-4H-1,2,4-triazole-3-carboxylate]
17 | > 9.00 | O=C(NCc1ncn2ccc(Cl)c(F)c12)c1cn(Cc2cn3cc(C4CC4)cc(N4CC5(COC5)C4)c3n2)nn1 [Example I-250, N-((7-chloro-8-fluoroimidazo[1,5-a]pyridin-1-yl)methyl)-1-((6-cyclopropyl-8-(2-oxa-6-azaspiro[3.3]heptan-6-yl)imidazo[1,2-a]pyridin-2-yl)methyl)-1H-1,2,3-triazole-4-carboxamide]
18 | > 9.00 | O=C(O)CCn1c(Cn2cc(C(=O)NCc3ncn4ccc(Cl)c(F)c34)nn2)cc2cc(C3CC3)ccc21 [Example I-251b, 3-(2-((4-(((7-chloro-8-fluoroimidazo[1,5-a]pyridin-1-yl)methyl)carbamoyl)-1H-1,2,3-triazol-1-yl)methyl)-5-cyclopropyl-1H-indol-1-yl)propanoic acid]
19 | > 9.00 | Cc1ncn(-c2cc(C3CC3)cn3cc(Cn4cc(C(=O)NCc5ncn6ccc(Cl)c(F)c56)nn4)nc23)n1 [Example I-258, N-((7-chloro-8-fluoroimidazo[1,5-a]pyridin-1-yl)methyl)-1-((6-cyclopropyl-8-(3-methyl-1H-1,2,4-triazol-1-yl)imidazo[1,2-a]pyridin-2-yl)methyl)-1H-1,2,3-triazole-4-carboxamide]
20 | > 9.00 | O=C(NCc1ncn2ccc(Cl)c(F)c12)c1cn(Cc2cn3cc(C4CC4)ccc3n2)c(C(=O)O)n1 [Example I-261, 4-(((7-chloro-8-fluoroimidazo[1,5-a]pyridin-1-yl)methyl)carbamoyl)-1-((6-cyclopropylimidazo[1,2-a]pyridin-2-yl)methyl)-1H-imidazole-2-carboxylic acid]
21 | > 9.00 | O=C(NCc1ncn2ccc(Cl)c(F)c12)c1cn(Cc2cc3cc(C4CC4)cc(N4CCCC4=O)n3n2)nn1 [Example I-262, N-((7-chloro-8-fluoroimidazo[1,5-a]pyridin-1-yl)methyl)-1-((5-cyclopropyl-7-(2-oxopyrrolidin-1-yl)pyrazolo[1,5-a]pyridin-2-yl)methyl)-1H-1,2,3-triazole-4-carboxamide]
22 | > 9.00 | O=C(NCc1ncn2ccc(Cl)c(F)c12)c1cn(Cc2cn3cc(C4CC4)cc(N4CCOC(C(=O)O)C4)c3n2)nn1 (stereo not shown) [Example I-264, 4-(2-((4-(((7-chloro-8-fluoroimidazo[1,5-a]pyridin-1-yl)methyl)carbamoyl)-1H-1,2,3-triazol-1-yl)methyl)-6-cyclopropylimidazo[1,2-a]pyridin-8-yl)morpholine-2-carboxylic acid]
23 | > 9.00 | O=C(NCc1ncn2ccc(Cl)c(F)c12)c1cn(Cc2cn3nc(C4CC4)cc(N4CC(C(=O)O)C4)c3n2)nn1 [Example I-265b, 1-(2-((4-(((7-chloro-8-fluoroimidazo[1,5-a]pyridin-1-yl)methyl)carbamoyl)-1H-1,2,3-triazol-1-yl)methyl)-6-cyclopropylimidazo[1,2-b]pyridazin-8-yl)azetidine-3-carboxylic acid]
24 | 8.00 to 9.00 | CCOC(=O)c1c(Cn2cc(C(=O)NCc3ncn4ccc(Cl)c(F)c34)nn2)cc2ccc(C3CC3)cn12 [Example I-268, ethyl 2-((4-(((7-chloro-8-fluoroimidazo[1,5-a]pyridin-1-yl)methyl)carbamoyl)-1H-1,2,3-triazol-1-yl)methyl)-6-cyclopropylindolizine-3-carboxylate]
25 | 8.00 to 9.00 | COC(=O)c1cc(C(=O)NCc2ncn3ccc(Cl)c(F)c23)cn1Cc1cn2cc(C3CC3)ccc2n1 [Example I-270a, methyl 4-(((7-chloro-8-fluoroimidazo[1,5-a]pyridin-1-yl)methyl)carbamoyl)-1-((6-cyclopropylimidazo[1,2-a]pyridin-2-yl)methyl)-1H-pyrrole-2-carboxylate]
